Assay results published in US20170209448A1, “TREATMENT REGIMENS USING MULTIPLE PHARMACEUTICAL AGENTS” (INTELLIKINE LLC, priority 2011, published 2017).

Each compound was assayed on A498 xenografts (assay: Tumor hypoxia by pimonidazole staining in A498 xenografts). Conditions: 6 cycles, doses and schedules of Table 5 (Compound A 1 mg/kg PO QD or 3QW; Sorafenib 40 mg/kg IP 4QW; alternating 3QW/4QW), tumor 2 hr after dosing.
Type: in vivo, Mice
Description: Mice bearing A498 xenografts were treated as shown below in Table 5 for 6 weeks or cycles (each cycle consisting of 7 days). During cycle 6, mice were sacrificed 2 hours after dosing. Pimonidazole hydrochloride, which binds to proteins in hypoxia conditions, was injected intraperitoneally 60 minutes before the tumor was harvested. Tumors were collected either at 2 hr of vehicle (Groups A, C, and D), Compound A (Groups B, C, and E) or sorafenib (Group D) dosing. Tumor tissues were formalin fixed and paraffin embedded. Tissue sections were stained with anti-pimonidazole antibody and visualized with DAB (dark brown).

Row | Compound | tumor hypoxia (anti-pimonidazole staining)
1 | CNC(=O)c1cc(Oc2ccc(NC(=O)Nc3ccc(Cl)c(C(F)(F)F)c3)cc2)ccn1 [Sorafenib, sorafenib] | caused necrosis and cells surrounding the necrosis area appear pimonidazole positive

Same assay, conditions: intermittent dosing (Table 5), off phase of the cycle

Row | Compound | tumor hypoxia (anti-pimonidazole staining), off phase
2 | CNC(=O)c1cc(Oc2ccc(NC(=O)Nc3ccc(Cl)c(C(F)(F)F)c3)cc2)ccn1 [Sorafenib, sorafenib] | pimonidazole staining intensity was reduced

Each compound was assayed against T1, mTORC (Homo sapiens, UniProt P42345) (assay: mTORC in vitro IC50 (Table 2)). Conditions: not given.
T1 construct: purchased Invitrogen
T1 sequence (P42345 1360-2549 limits assumed): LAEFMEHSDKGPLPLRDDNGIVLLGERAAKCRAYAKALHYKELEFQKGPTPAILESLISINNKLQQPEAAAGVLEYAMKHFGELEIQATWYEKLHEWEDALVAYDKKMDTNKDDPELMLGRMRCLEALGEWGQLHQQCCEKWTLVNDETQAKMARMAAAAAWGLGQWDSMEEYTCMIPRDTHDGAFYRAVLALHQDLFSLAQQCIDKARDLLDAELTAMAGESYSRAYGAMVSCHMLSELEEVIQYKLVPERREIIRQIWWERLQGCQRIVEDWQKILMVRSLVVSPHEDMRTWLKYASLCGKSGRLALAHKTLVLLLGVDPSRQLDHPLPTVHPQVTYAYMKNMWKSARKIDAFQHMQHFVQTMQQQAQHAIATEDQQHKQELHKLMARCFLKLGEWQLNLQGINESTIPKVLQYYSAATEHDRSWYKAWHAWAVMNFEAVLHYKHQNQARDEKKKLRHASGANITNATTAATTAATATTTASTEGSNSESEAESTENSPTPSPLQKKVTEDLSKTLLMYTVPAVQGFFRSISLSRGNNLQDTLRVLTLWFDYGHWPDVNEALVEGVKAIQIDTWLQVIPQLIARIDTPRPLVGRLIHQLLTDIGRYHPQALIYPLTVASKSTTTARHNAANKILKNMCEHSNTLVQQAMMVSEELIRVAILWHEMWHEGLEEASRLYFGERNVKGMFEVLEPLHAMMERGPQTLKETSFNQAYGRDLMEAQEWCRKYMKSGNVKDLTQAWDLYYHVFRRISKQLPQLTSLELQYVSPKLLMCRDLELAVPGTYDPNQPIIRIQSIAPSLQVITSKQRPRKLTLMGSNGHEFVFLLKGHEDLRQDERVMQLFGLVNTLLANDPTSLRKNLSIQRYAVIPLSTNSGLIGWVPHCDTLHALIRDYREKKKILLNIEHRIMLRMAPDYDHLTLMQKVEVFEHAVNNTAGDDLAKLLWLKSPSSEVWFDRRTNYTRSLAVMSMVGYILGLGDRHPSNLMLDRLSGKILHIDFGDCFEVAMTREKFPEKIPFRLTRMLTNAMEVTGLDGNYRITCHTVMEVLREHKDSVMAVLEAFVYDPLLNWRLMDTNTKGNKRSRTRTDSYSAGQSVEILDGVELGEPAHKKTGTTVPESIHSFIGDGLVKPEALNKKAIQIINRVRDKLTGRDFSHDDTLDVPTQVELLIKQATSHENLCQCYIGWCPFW
Type: biochemical

Row | Compound | IC50 [nM]
3 | CC(C)n1nc(-c2cc3cc(F)ccc3[nH]2)c2c(N)ncnc21 [Compound 3] | < 500
4 | CC(C)n1nc(-c2cc3ccccc3[nH]2)c2c(N)ncnc21 [Compound 7] | < 100
5 | CC(C)n1nc(-c2cc3c(Cl)cccc3[nH]2)c2c(N)ncnc21 [Compound 9] | < 50
6 | COc1cccc2cc(-c3nn(C(C)C)c4ncnc(N)c34)[nH]c12 [Compound 10] | < 25
7 | Nc1ncnc2c1c(-c1cc3cc(O)ccc3[nH]1)nn2C1CCCC1 [Compound 12] | < 10
8 | CC(C)n1nc(-c2cc3ccc(O)cc3[nH]2)c2c(N)ncnc21 [Compound 21] | < 50
9 | CC(C)n1nc(-c2cc3ccc(C(N)=O)cc3[nH]2)c2c(N)ncnc21 [Compound 25] | < 500
10 | Nc1ncnc2c1c(-c1cc3cc(O)ccc3[nH]1)nn2C1CCCCC1 [Compound 26] | < 10
11 | Nc1ncnc2c1c(-c1cc3cc(O)ccc3[nH]1)nn2C1CCC1 [Compound 27] | < 25
12 | CCOC(=O)Cn1nc(-c2cc3cc(O)ccc3[nH]2)c2c(N)ncnc21 [Compound 28] | < 500
13 | CC(=O)N1CCC(n2nc(-c3cc4cc(O)ccc4[nH]3)c3c(N)ncnc32)CC1 [Compound 30] | < 25
14 | Nc1ncnc2c1c(-c1cc3cc(O)ccc3[nH]1)nn2C1CCN(C(=O)C2CC2)CC1 [Compound 31] | < 25
15 | CC(C)n1nc(-c2cc3cc(O)c(Cl)cc3[nH]2)c2c(N)ncnc21 [Compound 32] | < 500
16 | Nc1ncnc2c1c(-c1cc3cc(O)ccc3[nH]1)nn2CCN1CCOCC1 [Compound 33] | < 500
17 | Nc1ncnc2c1c(-c1cc3cccc(O)c3[nH]1)nn2C1CCCC1 [Compound 36] | < 10
18 | Nc1ncnc2c1c(-c1cc3cc(O)ccc3[nH]1)nn2Cc1cccnc1 [Compound 38] | < 500
19 | CC(C)n1nc(-c2cc3c(Cl)ccc(O)c3[nH]2)c2c(N)ncnc21 [Compound 39] | < 10

Row | Compound | IC50 [nM]
20 | COCCn1nc(-c2cc3cc(O)ccc3[nH]2)c2c(N)ncnc21 [Compound 40] | < 100
21 | Nc1ncnc2c1c(-c1cc3cccc(O)c3[nH]1)nn2C1CCN(C(=O)C2CC2)CC1 [Compound 41] | < 10
22 | Cc1nccn1CCn1nc(-c2cc3cc(O)ccc3[nH]2)c2c(N)ncnc21 [Compound 44] | < 100
23 | Nc1ncnc2c1c(-c1cc3c(Cl)cccc3[nH]1)nn2C1CCOCC1 [Compound 48] | < 50
24 | Nc1ncnc2c1c(-c1cc3cc(O)ccc3[nH]1)nn2C1CC(N2CCOCC2)C1 (stereo not drawn) [Compound 49] | < 10
25 | CC(C)n1nc(-c2cc3cccc(Cl)c3[nH]2)c2c(N)ncnc21 [Compound 50] | < 50
26 | Nc1ncnc2c1c(-c1cc3cccc(Cl)c3[nH]1)nn2C1CCOCC1 [Compound 51] | < 50
27 | CN1CCN(C2CC(n3nc(-c4cc5cc(O)ccc5[nH]4)c4c(N)ncnc43)C2)CC1 (stereo not drawn) [Compound 52] | < 500
28 | Nc1ncnc2c1c(-c1cc3cc(O)ccc3[nH]1)nn2C1CC(=O)C1 [Compound 53] | < 100
29 | Nc1ncnc2c1c(-c1cc3cc(O)ccc3[nH]1)nn2C1CC(O)C1 (stereo not drawn) [Compound 54] | < 25
30 | CC(C)N1CCC(n2nc(-c3cc4cc(O)ccc4[nH]3)c3c(N)ncnc32)CC1 [Compound 55] | < 500
31 | Nc1ncnc2c1c(-c1cc3cc(O)ccc3[nH]1)nn2C1CCC(N2CCOCC2)CC1 (stereo not drawn) [Compound 57] | < 25
32 | Nc1ncnc2c1c(-c1cc3ccc(O)cc3[nH]1)nn2C1CCOCC1 [Compound 60] | < 100
33 | COc1ccc(Cl)c2cc(-c3nn(C4CCOCC4)c4ncnc(N)c34)[nH]c12 [Compound 61] | < 25
34 | CC(C)N1CCC(n2nc(-c3cc4cccc(O)c4[nH]3)c3c(N)ncnc32)CC1 [Compound 64] | < 25
35 | CC(=O)N1CCC(n2nc(-c3cc4ccc(O)cc4[nH]3)c3c(N)ncnc32)CC1 [Compound 65] | < 10
36 | CC(C)N1CCC(n2nc(-c3cc4c(Cl)ccc(O)c4[nH]3)c3c(N)ncnc32)CC1 [Compound 71] | < 100

What follows are compounds tested on PC3 (assay: PC3 tumor cell line proliferation assay). Conditions: Homo sapiens, PC-3; Table 1; read-out: PC3 IC50.
Type: cell-based
Description: The assay is performed in a 96 well microtiter plate using Alamar Blue reduction. […] A compound disclosed herein is diluted in Tumor Cell Media and added in a 10 ul volume. […] A volume of 10 uL of Alamar Blue reagent is added to each well and plates are incubated for 3 hours at 37 C and 5% CO2.

Row | Compound | IC50 [nM]
37 | CC(=O)Nc1nc2cc(-c3nn(C(C)C)c4ncnc(N)c34)ccc2o1 [Compound 2] | < 1000
38 | CC(C)n1nc(-c2ccc3nc(N)oc3c2)c2c(N)ncnc21 [Compound 4] | < 10000
39 | Nc1nc2cc(-c3nn(C4CCOCC4)c4ncnc(N)c34)ccc2o1 [Compound 5] | < 100
40 | Nc1nc2cc(-c3nn(C4CCC(N5CCOCC5)CC4)c4ncnc(N)c34)ccc2o1 (stereo not drawn) [Compound 6] | < 1000
41 | CC(=O)N1CCC(n2nc(-c3ccc4oc(N)nc4c3)c3c(N)ncnc32)CC1 [Compound 7] | < 10000
42 | CC(C)n1cc(-c2ccc3oc(N)nc3c2)c2c(N)ncnc21 [Compound 8] | < 100
43 | Nc1nc2cc(-c3cn(C4CCOCC4)c4ncnc(N)c34)ccc2o1 [Compound 9] | < 100
44 | CC(C)n1nc(-c2ccc3onc(N)c3c2)c2c(N)ncnc21 [Compound 10] | > 10000
45 | CC(=O)Nc1noc2cc(-c3nn(C(C)C)c4ncnc(N)c34)ccc12 [Compound 11] | > 10000
46 | CC(C)n1nc(-c2ccc3c(N)noc3c2)c2c(N)ncnc21 [Compound 12] | > 10000

Same assay, conditions: Homo sapiens, PC-3; Table 2; read-out: PC3 proliferation

Row | Compound | IC50 [nM]
47 | CC(C)n1nc(-c2cc3ccc(C#N)cc3[nH]2)c2c(N)ncnc21 [Compound 24] | > 500
48 | CC(C)n1nc(-c2cc3ccc(C(N)=O)cc3[nH]2)c2c(N)ncnc21 [Compound 25] | > 500
